Like-named read-outs stand apart in the source and are kept apart here. Peptide text beside a SMILES is read from it.
Legend:
Format in all cases: cell-based
human GCG R = target: T1, human GCG R (Homo sapiens, UniProt P47871); assay: cAMP induction in HEK293 cells expressing human GCG R (AlphaScreen cAMP kit)
T1 construct: expressed in transfected cells

human GIP R = target: T2, human GIP R (Homo sapiens, UniProt P48546); assay: cAMP induction in HEK293 cells expressing human GIP R (AlphaScreen cAMP kit); conditions: GIP R (EC50 in nM)
T2 construct: expressed in transfected cells
T2 sequence (P48546 22-466): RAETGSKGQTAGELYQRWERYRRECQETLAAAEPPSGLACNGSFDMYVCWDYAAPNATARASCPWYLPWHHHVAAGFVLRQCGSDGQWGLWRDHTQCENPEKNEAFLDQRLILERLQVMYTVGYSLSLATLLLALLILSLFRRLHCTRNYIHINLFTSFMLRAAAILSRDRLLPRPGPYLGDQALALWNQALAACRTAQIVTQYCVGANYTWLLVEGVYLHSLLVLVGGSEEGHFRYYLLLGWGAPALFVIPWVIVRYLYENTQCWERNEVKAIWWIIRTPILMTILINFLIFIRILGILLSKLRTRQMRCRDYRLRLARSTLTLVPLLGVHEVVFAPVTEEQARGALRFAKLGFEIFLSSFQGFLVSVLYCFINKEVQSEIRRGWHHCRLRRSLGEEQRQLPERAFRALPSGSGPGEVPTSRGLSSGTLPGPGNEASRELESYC

human GLP-1 R = target: T3, human GLP-1 R (Homo sapiens, UniProt P43220); assay: cAMP induction in HEK293 cells expressing human GLP-1 R (AlphaScreen cAMP kit); conditions: average EC50, cAMP, HEK293 cells expressing human GLP-1 R, read-out: GLP1 R (EC50 in nM)
T3 construct: expressed in transfected cells

[1] = Table 2b (most comprehensive data)
[2] = Table 2b (most comprehensive data), average EC50, cAMP

T1 sequence (P47871 26-477): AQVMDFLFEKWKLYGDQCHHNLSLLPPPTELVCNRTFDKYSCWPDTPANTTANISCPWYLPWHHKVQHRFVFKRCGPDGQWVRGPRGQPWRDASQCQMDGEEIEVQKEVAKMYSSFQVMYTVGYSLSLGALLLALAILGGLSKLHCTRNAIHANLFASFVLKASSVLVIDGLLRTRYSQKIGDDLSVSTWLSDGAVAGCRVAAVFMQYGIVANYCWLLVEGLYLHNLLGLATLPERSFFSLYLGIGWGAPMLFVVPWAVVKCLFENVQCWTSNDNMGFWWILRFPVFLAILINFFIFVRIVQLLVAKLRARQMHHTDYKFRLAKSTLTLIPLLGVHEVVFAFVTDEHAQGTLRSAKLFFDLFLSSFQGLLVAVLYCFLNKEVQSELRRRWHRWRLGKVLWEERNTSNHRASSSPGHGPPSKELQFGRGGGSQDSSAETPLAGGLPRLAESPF
T3 sequence (P43220 24-463): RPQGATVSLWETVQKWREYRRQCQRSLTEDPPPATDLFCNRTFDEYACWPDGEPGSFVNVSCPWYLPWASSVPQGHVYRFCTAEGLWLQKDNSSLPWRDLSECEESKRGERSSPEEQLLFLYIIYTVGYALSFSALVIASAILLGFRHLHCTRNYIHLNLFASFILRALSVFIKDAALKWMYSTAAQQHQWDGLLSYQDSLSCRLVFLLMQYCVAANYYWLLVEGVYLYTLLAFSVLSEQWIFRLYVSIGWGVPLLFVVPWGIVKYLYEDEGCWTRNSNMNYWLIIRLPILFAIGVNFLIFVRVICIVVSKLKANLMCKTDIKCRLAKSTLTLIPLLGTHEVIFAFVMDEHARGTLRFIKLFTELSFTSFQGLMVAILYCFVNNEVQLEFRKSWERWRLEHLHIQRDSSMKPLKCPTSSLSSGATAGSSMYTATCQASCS

SMILES | EC50 (human GCG R) | EC50 (human GIP R; Table 2, average EC50, cAMP) | EC50 (human GLP-1 R; Table 2) | EC50 (human GLP-1 R; [1]) | EC50 (human GIP R; [2])
CC[C@H](C)[C@H](NC(=O)[C@H](CO)NC(=O)[C@H](Cc1ccc(O)cc1)NC(=O)[C@H](CC(=O)O)NC(=O)[C@H](CO)NC(=O)[C@@H](NC(=O)[C@H](Cc1ccccc1)NC(=O)[C@@H](NC(=O)CNC(=O)[C@H](CCC(N)=O)NC(=O)C(C)(C)NC(=O)[C@@H](N)Cc1ccc(O)cc1)[C@@H](C)O)[C@@H](C)O)C(=O)N[C@@H](Cc1ccc(O)cc1)C(=O)N[C@@H](CC(C)C)C(=O)N[C@@H](CC(=O)O)C(=O)N[C@@H](CO)C(=O)N[C@@H](CCCCN)C(=O)N[C@@H](C)C(=O)N[C@@H](C)C(=O)N[C@@H](Cc1c[nH]cn1)C(=O)N[C@@H](CC(=O)O)C(=O)N[C@@H](Cc1ccccc1)C(=O)N[C@H](C(=O)N[C@@H](CC(N)=O)C(=O)N[C@@H](Cc1c[nH]c2ccccc12)C(=O)N[C@@H](CC(C)C)C(=O)N[C@@H](CC(C)C)C(=O)N[C@@H](CO)C(=O)N[C@@H](C)C(N)=O)C(C)C [Compound 11] (HELM PEPTIDE1{Y.[Aib].Q.G.T.F.T.S.D.Y.S.I.Y.L.D.S.K.A.A.H.D.F.V.N.W.L.L.S.A.[am]}$$$$V2.0) | 0.11 nM | 0.28 nM | 0.02 nM | 0.11 nM | 
CC(C)C[C@H](NC(=O)[C@H](CC(C)C)NC(=O)[C@H](Cc1c[nH]c2ccccc12)NC(=O)[C@H](CCC(=O)O)NC(=O)[C@@H](NC(=O)[C@H](Cc1ccccc1)NC(=O)[C@H](CCC(=O)O)NC(=O)[C@H](CCCCN)NC(=O)[C@H](CCC(N)=O)NC(=O)[C@H](C)NC(=O)[C@H](CCCCN)NC(=O)[C@H](CCCCN)NC(=O)[C@H](CCC(=O)O)NC(=O)[C@H](CC(C)C)NC(=O)[C@H](Cc1ccc(O)cc1)NC(=O)[C@H](CCCCN)NC(=O)[C@H](CO)NC(=O)[C@H](Cc1ccc(O)cc1)NC(=O)[C@H](CC(=O)O)NC(=O)[C@H](CO)NC(=O)[C@@H](NC(=O)[C@H](Cc1ccccc1)NC(=O)[C@@H](NC(=O)CNC(=O)[C@H](CCC(N)=O)NC(=O)C(C)(C)NC(=O)[C@@H](N)Cc1ccc(O)cc1)[C@@H](C)O)[C@@H](C)O)C(C)C)C(=O)N[C@@H](CO)C(=O)N[C@@H](C)C(N)=O [Compound 22] (HELM PEPTIDE1{Y.[Aib].Q.G.T.F.T.S.D.Y.S.K.Y.L.E.K.K.A.Q.K.E.F.V.E.W.L.L.S.A.[am]}$$$$V2.0) | 0.76 nM | 0.18 nM | 0.028 nM |  | 0.03 nM
CC(C)C[C@H](NC(=O)[C@H](C)NC(=O)[C@H](CCCCN)NC(=O)[C@H](CO)NC(=O)[C@H](Cc1ccc(O)cc1)NC(=O)[C@H](CC(=O)O)NC(=O)[C@H](CO)NC(=O)[C@@H](NC(=O)[C@H](Cc1ccccc1)NC(=O)[C@@H](NC(=O)CNC(=O)[C@H](CCC(N)=O)NC(=O)C(C)(C)NC(=O)[C@@H](N)Cc1ccc(O)cc1)[C@@H](C)O)[C@@H](C)O)C(=O)N[C@@H](CC(=O)O)C(=O)N[C@@H](CCC(=O)O)C(=O)N[C@@H](CCCCN)C(=O)N[C@@H](C)C(=O)N[C@@H](C)C(=O)N[C@@H](CCCCN)C(=O)N[C@@H](CCC(=O)O)C(=O)N[C@@H](Cc1ccccc1)C(=O)N[C@H](C(=O)N[C@@H](CCC(=O)O)C(=O)N[C@@H](Cc1c[nH]c2ccccc12)C(=O)N[C@@H](CC(C)C)C(=O)N[C@@H](CC(C)C)C(=O)N[C@@H](CO)C(=O)N[C@@H](C)C(N)=O)C(C)C [Compound 21] (HELM PEPTIDE1{Y.[Aib].Q.G.T.F.T.S.D.Y.S.K.A.L.D.E.K.A.A.K.E.F.V.E.W.L.L.S.A.[am]}$$$$V2.0) | 0.1 nM | 0.18 nM | 0.014 nM | 0.1 nM | 0.015 nM
